Measured values published in publication PMC6039549, “The Sodium Sialic Acid Symporter From Staphylococcus aureus Has Altered Substrate Specificity” (Frontiers in Chemistry, 2018).

How the values were obtained:
[1] = target: T1, SaSiaT (sodium sialic acid symporter) (Staphylococcus aureus, UniProt A0A0H2XJ46); test: isothermal titration calorimetry (n = […]); microscale thermophoresis gives Kd =[…]; format: binding
T1 construct: gene SAUSA300_0314; recombinant SaSiaT, GFP-tag cleaved with HRV3C protease, purified in DDM
T1 sequence (A0A0H2XJ46 entry or part of it): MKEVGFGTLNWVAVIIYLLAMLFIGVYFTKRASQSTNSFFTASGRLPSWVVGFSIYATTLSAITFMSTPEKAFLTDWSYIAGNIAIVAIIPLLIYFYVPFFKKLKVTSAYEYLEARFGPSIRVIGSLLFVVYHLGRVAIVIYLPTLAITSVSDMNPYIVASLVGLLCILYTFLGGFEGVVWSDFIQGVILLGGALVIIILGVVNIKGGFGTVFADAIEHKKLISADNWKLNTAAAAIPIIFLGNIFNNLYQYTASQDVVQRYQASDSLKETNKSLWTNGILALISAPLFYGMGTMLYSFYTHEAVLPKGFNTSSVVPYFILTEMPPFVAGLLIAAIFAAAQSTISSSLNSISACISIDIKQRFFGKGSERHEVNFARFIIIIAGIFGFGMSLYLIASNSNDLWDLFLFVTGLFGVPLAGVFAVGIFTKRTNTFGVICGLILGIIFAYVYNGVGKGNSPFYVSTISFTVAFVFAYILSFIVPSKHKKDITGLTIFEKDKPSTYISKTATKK

[2] = target: T1, SaSiaT (sodium sialic acid symporter); test: isothermal titration calorimetry (n = […]); microscale thermophoresis gives Kd =[…]; proteoliposome transport KM […]; format: binding

## O=C(CO)N[C@H]1[C@H]([C@H](O)[C@H](O)CO)O[C@@](O)(C(=O)O)C[C@@H]1O [Neu5Gc, N-glycolylneuraminic acid]
[1]
  Kd: 18 ± 2 µM

## CC(=O)N[C@H]1[C@H]([C@H](O)[C@H](O)CO)OC(O)(C(=O)O)C[C@@H]1O (some centres unmarked) [Neu5Ac, N-acetylneuraminic acid]
[2]
  Kd: 106 ± 2 µM
